{"source": "paper PMC12189931", "about": "“In Vitro Effects of Some Antibiotics on Purified β-Glucosidases from Rat Liver and Kidney Tissues” (Antibiotics, 2025)", "key": {"rat liver BGL": {"molecular_target": "T1, rat liver BGL (Rattus norvegicus, UniProt A0A0G2JVP8)", "T1 construct": "For this purpose, BGLs were purified from rat liver and kidney tissues; from tissue; host or cells: rat liver", "T1 sequence (A0A0G2JVP8 1-469)": "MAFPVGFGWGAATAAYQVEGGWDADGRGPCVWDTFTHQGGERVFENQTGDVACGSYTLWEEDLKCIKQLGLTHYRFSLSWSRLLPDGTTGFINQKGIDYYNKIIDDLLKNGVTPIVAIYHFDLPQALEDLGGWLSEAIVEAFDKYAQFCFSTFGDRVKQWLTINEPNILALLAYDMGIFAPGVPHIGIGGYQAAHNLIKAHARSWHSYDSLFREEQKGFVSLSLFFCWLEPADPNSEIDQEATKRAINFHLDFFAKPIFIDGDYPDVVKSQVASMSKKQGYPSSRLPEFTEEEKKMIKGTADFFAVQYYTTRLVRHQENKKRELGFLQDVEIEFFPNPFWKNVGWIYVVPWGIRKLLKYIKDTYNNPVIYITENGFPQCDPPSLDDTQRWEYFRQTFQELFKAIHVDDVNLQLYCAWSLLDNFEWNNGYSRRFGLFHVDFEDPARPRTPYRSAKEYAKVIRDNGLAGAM", "experiment": "In vitro inhibition of β-glucosidase purified from rat liver (p-NPG substrate)", "assay_type": "biochemical", "settings": "for effect on rat liver BGL activity: tested concentration ranges 5–250 mM depending on antibiotic", "procedure": "(§1) Rat liver and kidney BGL activities were determined spectrophotometrically using a ThermoFisher Scientific Multiskan™ FC microplate (Thermo Fisher Scientific, Waltham, MA, USA). p-NPG dissolved in 50 mM of pH 5.5 Na–Ac buffer was used as the substrate. In this method, enzyme activity was determined by photometrically measuring the determination of p-nitrophenol (p-NP) released in the presence of BGLs spectrophotometrically at 405 nm. Calculations were made with the standard curve of p-NP (Cat. No. 241326, Sigma) prepared at 405 nm. One enzyme unit (EU) was defined as the amount of μmol p-nitrophenol released per minute in the reaction medium under the specified experimental conditions.\n(§2) The half-maximal inhibitory concentration (IC50) of antibiotics was determined using a constant concentration of p-NPG of 1.75 mM. At least ten different concentration ranges of each antibiotic were tested to evaluate the in vitro effects of ampicillin (5–250 mM), amoxicillin–clavulanate (5–70 mM), cefuroxime (5–150 mM), cefazolin sodium (10–165 mM), ceftriaxone (10–160 mM), and gentamicin (5–50 mM). Enzyme activity was measured in the presence of different antibiotic concentrations, and BGL activity in the medium without antibiotics, which was accepted as the control group, was determined as 100% reference value. Enzyme activity results were expressed as % activity and the inhibitory concentration (IC50) that reduced enzyme activity by 50% was calculated using GraphPad Prism software. All experiments were performed in three replicates for each antibiotic concentration.\n(§3) Lineweaver–Burk double-reciprocal plots were used to determine the inhibitory effect of antibiotics and the inhibition mechanisms. The curve obtained when there was no inhibitor in the reaction medium was accepted as the control (I0); the intersection points of the control curve with the lines drawn in the presence of the inhibitor at two different concentrations were analyzed. In line with these intersection points, the relevant inhibition types were determined, and the inhibitory constants (Ki) of the inhibitors were calculated."}, "rat kidney BGL": {"molecular_target": "T2, rat kidney BGL (Rattus norvegicus, UniProt A0A0G2JVP8)", "T2 construct": "For this purpose, BGLs were purified from rat liver and kidney tissues; from tissue; host or cells: rat kidney", "T2 sequence (A0A0G2JVP8 1-469)": "T1 sequence (A0A0G2JVP8 1-469)", "experiment": "In vitro inhibition of β-glucosidase purified from rat kidney (p-NPG substrate)", "assay_type": "biochemical", "settings": "for Ki / inhibition type / IC50: Kidney BGL; for Ki: Lineweaver–Burk plots; for inhibition type: Lineweaver–Burk, NI: No observed inhibition; for IC50: p-NPG 1.75 mM, GraphPad Prism; for effect on rat kidney BGL activity: tested concentration ranges 5–250 mM depending on antibiotic", "procedure": "as §1, §2, §3"}, "[1]": {"tested_on": "glutathione reductase (GR) purified from mouse kidney tissue", "set-up": "method as in PMID 32196862", "settings": "cited from earlier work"}, "[2]": {"tested_on": "glucose-6-phosphate dehydrogenase (G6PD) purified from human erythrocytes", "set-up": "method as in PMID 10712835", "settings": "cited from earlier work; for IC50: G6PD purified from human erythrocytes"}, "[3]": {"tested_on": "glutathione reductase (GR) purified from mouse liver", "set-up": "method as in PMID 32196862", "settings": "cited from earlier work"}, "[4]": {"tested_on": "glucose-6-phosphate dehydrogenase (G6PD) purified from rat lung tissue", "set-up": "method as in PMID 26758606", "settings": "cited from earlier work"}, "[5]": {"tested_on": "glutathione reductase (GR) purified from rat lung tissue", "set-up": "method as in PMID 26758606", "settings": "cited from earlier work"}, "[6]": {"tested_on": "6-phosphogluconate dehydrogenase (6PGD) purified from rat lung tissue", "set-up": "method as in PMID 26758606", "settings": "cited from earlier work"}, "[7]": {"tested_on": "glutathione reductase (GR) purified from human erythrocytes", "set-up": "method as in PMID 15895687", "settings": "cited from earlier work"}, "[8]": {"tested_on": "G6PD purified from sheep erythrocytes", "set-up": "method as in PMID 12530481", "settings": "cited from earlier work"}}, "note": "Where “and” joins values, the source holds several entries; their conditions need not be identical. Identical values can stand only once. Entries after “also recorded” stand apart in the source; their conditions may differ."}
{"molecule": "CC1(C)S[C@@H]2[C@H](NC(=O)[C@H](N)c3ccccc3)C(=O)N2[C@H]1C(=O)O", "note": "[Ampicillin]", "values": [{"measurement": "loss in liver BGL activity", "setting": "rat liver BGL; 40 mM ampicillin in the medium", "value": 10, "unit": "%"}, {"measurement": "Ki", "setting": "rat liver BGL; Liver BGL, Lineweaver–Burk plots", "value": "14.3 ± 3.35", "unit": "mM"}, {"measurement": "inhibition type", "setting": "rat liver BGL; Liver BGL, Lineweaver–Burk, NI: No observed inhibition", "value": "competitively; also recorded: Competitive"}, {"measurement": "IC50", "setting": "rat liver BGL; Liver BGL, p-NPG 1.75 mM, GraphPad Prism", "value": "70 mM and 69.6 mM"}, {"measurement": "Ki", "setting": "rat kidney BGL", "value": "28.4 ± 6.35", "unit": "mM"}, {"measurement": "inhibition type", "setting": "rat kidney BGL", "value": "noncompetitively; also recorded: Noncompetitive"}, {"measurement": "IC50", "setting": "rat kidney BGL", "value": "25 mM and 25.3 mM"}]}
{"molecule": "Cc1nnc(SCC2=C(C(=O)O)N3C(=O)[C@@H](NC(=O)Cn4cnnn4)[C@H]3SC2)s1", "note": "[Cefazolin sodium]", "values": [{"measurement": "inhibition / inhibition type", "setting": "[1]", "value": "did not inhibit"}, {"measurement": "inhibition type", "setting": "[2]; human erythrocyte G6PD", "value": "noncompetitive"}, {"measurement": "effect on rat liver BGL activity", "setting": "rat liver BGL", "value": "did not show a significant inhibitory effect"}, {"measurement": "inhibition type", "setting": "rat kidney BGL", "value": "Noncompetitive"}, {"measurement": "inhibition type", "setting": "rat kidney BGL; listed as cefazolin sodium", "value": "noncompetitively"}, {"measurement": "IC50", "setting": "rat kidney BGL", "value": 98.8, "unit": "mM"}, {"measurement": "inhibition / inhibition type", "setting": "[3]", "value": "did not inhibit"}]}
{"molecule": "CO/N=C(\\C(=O)N[C@@H]1C(=O)N2C(C(=O)O)=C(CSc3nc(=O)c(=O)[nH]n3C)CS[C@H]12)c1csc(N)n1", "note": "[Ceftriaxone]", "values": [{"measurement": "effect on rat liver BGL activity", "setting": "rat liver BGL", "value": "did not show a significant inhibitory effect"}, {"measurement": "effect on rat kidney BGL activity", "setting": "rat kidney BGL", "value": "did not reduce kidney BGL activity; also recorded: did not significantly inhibit; also recorded: did not exhibit inhibitory effects"}]}
{"molecule": "CO/N=C(\\C(=O)N[C@@H]1C(=O)N2C(C(=O)O)=C(COC(N)=O)CS[C@H]12)c1ccco1", "note": "[Cefuroxime]", "values": [{"measurement": "inhibition type", "setting": "[4]", "value": "noncompetitively"}, {"measurement": "effect on rat liver BGL activity", "setting": "rat liver BGL", "value": "did not show a significant inhibitory effect"}, {"measurement": "Ki", "setting": "rat kidney BGL", "value": "18.7 ± 12.7", "unit": "mM"}, {"measurement": "inhibition type", "setting": "rat kidney BGL", "value": "Uncompetitive"}, {"measurement": "IC50", "setting": "rat kidney BGL", "value": 76.9, "unit": "mM"}, {"measurement": "inhibition type", "setting": "[5]", "value": "noncompetitively"}, {"measurement": "inhibition type", "setting": "[6]", "value": "noncompetitively"}]}
{"molecule": "CNC(C)C1CCC(N)C(OC2C(N)CC(N)C(OC3OCC(C)(O)C(NC)C3O)C2O)O1", "note": "(centres unmarked) [Gentamicin]", "values": [{"measurement": "inhibition / inhibition type", "setting": "[1]", "value": "did not inhibit"}, {"measurement": "inhibition type", "setting": "[4]", "value": "competitively"}, {"measurement": "effect on enzyme activity", "setting": "[7]", "value": "increase the activity"}, {"measurement": "effect on rat liver BGL activity", "setting": "rat liver BGL; listed as gentamicin", "value": "did not show a significant inhibitory effect; also recorded: increased enzyme activity; also recorded: no inhibitory effect"}, {"measurement": "effect on rat kidney BGL activity", "setting": "rat kidney BGL", "value": "did not reduce kidney BGL activity"}, {"measurement": "effect on rat kidney BGL activity", "setting": "rat kidney BGL; listed as gentamicin", "value": "did not significantly inhibit; also recorded: did not exhibit inhibitory effects; also recorded: no effect on enzyme activity"}, {"measurement": "inhibition type", "setting": "[5]", "value": "competitively"}, {"measurement": "inhibition type", "setting": "[6]", "value": "competitively"}, {"measurement": "inhibition / inhibition type", "setting": "[3]", "value": "noncompetitive"}]}
{"molecule": "CC1(C)S[C@@H]2[C@H](NC(=O)[C@H](N)c3ccc(O)cc3)C(=O)N2[C@H]1C(=O)O", "note": "[amoxicillin]", "values": [{"measurement": "IC50", "setting": "[1]", "value": 86, "unit": "mM"}, {"measurement": "inhibition / inhibition type", "setting": "[1]", "value": "noncompetitive"}, {"measurement": "inhibition / inhibition type", "setting": "[3]", "value": "competitive"}]}
{"molecule": "CO/N=C(\\C(=O)N[C@@H]1C(=O)N2C(C(=O)O)=C(COC(N)=O)CS[C@H]12)c1ccco1", "note": "[sodium cefuroxime]", "values": [{"measurement": "IC50", "setting": "[2]", "value": 6.7, "unit": "mM"}]}
{"molecule": "gentamicin sulfate", "values": [{"measurement": "inhibition type", "setting": "[8]", "value": "noncompetitively"}, {"measurement": "IC50", "setting": "[2]", "value": 12, "unit": "mM"}]}
